Measured values published in PMC12750388, “Coumarin-1,2,3-Triazole Conjugates as Molecular Scaffolds for the Selective Induction of ROS-Driven Apoptosis in Cancer Cells in the Development of Pyruvate Kinase M2 Inhibitors” (ACS Omega, 2025).
pIC50: −log10 of the molar value.

What was measured:
SCC-4 = experiment: MTT cell viability assay, SCC-4; type: cell-based, human; details: for SI SCC-4: IC50 human gingival fibroblast / IC50 SCC-4; for pIC50: MTT, 48 h
Protocol: (§1) The viability of SCC cell lines and primary human fibroblast cells was evaluated using the MTT assay to determine half maximal inhibitory concentration (IC50). Briefly, cells were grown in triplicate in 96-well plates (5 × 10^3 cells/well) until confluence. Then the medium was removed, fresh medium was added, and the cells were returned to the incubator in the presence of different compounds. DMSO at the same concentrations was used as a 100% cell viability control. After 48 h, cells were incubated with 5 mg/mL MTT reagent (3-(4,5-dimethyl-2-thiazolyl)-2,5-diphenyl-2-H-tetrazolium bromide) (Sigma-Aldrich Co., St. Louis, MO, USA) for 3.5 h. After that, formazan crystals were dissolved in MTT solvent solution (DMSO/methanol 1:1 v/v), and the absorbance at 560 nm was evaluated using an EPOCH microplate spectrophotometer (BioTek Instruments, Winooski, VT, USA) with the background absorbance at 670 nm subtracted. Each of the 12 compounds (7a–7l) was tested at six different concentrations, ranging from 6.25 to 200 μM in cancer and normal cell lines. Control (carboplatin) was tested at six different concentrations ranging from 25 μM to 800 μM in cancer cells and from 50 μM to 1600 μM in normal cells.
(§2) Half-maximal inhibitory concentration (IC50) values were obtained from the MTT assay of at least three independent replicates through nonlinear regression analysis using GraphPad Prism 5.0 software (Intuitive Software for Science, San Diego, CA, USA). Data were presented as means ± standard deviation (SD). A log dose–response curve (inhibitor vs response) using the least-squares method was used to determine the IC50 and SD from the data. The selectivity index (SI) was calculated as the ratio between the IC50 in normal cells and the IC50 in cancer cells, obtained by dividing the IC50 of normal cells by the IC50 of cancer cells.

erythrocytes = experiment: Hemolysis assay; type: cell-based; details: human erythrocytes, 300 μM
Protocol: A hemolysis assay to evaluate surfactant effects of tested substances was performed using human blood approved by the Research Ethics Committee of Universidade Federal Fluminense (CAAE: 43134721.4.0000.5626). Erythrocytes are isolated upon three repeated centrifugation cycles at 1500 rpm for 15 min. Between each cycle of centrifugation, supernatant was removed, and a pH 7.5 PBS (phosphate-buffered saline) solution supplemented with 10 mM glucose was added to remove lysed erythrocytes. The number of cells was determined in an Automatic Cell Counter (Thermo Fisher, Waltham, MA, USA). Erythrocytes were then plated in 96-well plates at a concentration of 4 × 10^8 cells/well in triplicates, and 10 μL of compounds were added at a final concentration of 300 μM in PBS with glucose (final volume 100 μL). Ten μL of PBS was used as a negative control, and 10 μL of PBS with 0.1% Triton X-100 was used as a positive control. Data reading was performed with EPOCH (BioTek Instruments, Winooski, VT, USA) at an absorbance of 540 nm.

[1] = tested on: Primary Gingival Fibroblast; experiment: MTT cell viability assay, normal cells; type: cell-based, human; details: for pIC50: MTT, 48 h, normal cells; for Average SI: average of SI for SCC-9, SCC-4 and SCC-25 versus gingival fibroblast
Protocol: as §1, §2

SCC-25 = experiment: MTT cell viability assay, SCC-25; type: cell-based, human; details: for SI SCC-25: IC50 human gingival fibroblast / IC50 SCC-25; for pIC50: MTT, 48 h
Protocol: as §1, §2

SCC-9 cell line = experiment: MTT cell viability assay, SCC-9; type: cell-based, human; details: for SI SCC-9: IC50 human gingival fibroblast / IC50 SCC-9; for pIC50: MTT, 48 h
Protocol: as §1, §2

SCC-9 cells = experiment: MTT cell viability with N-acetyl-L-cysteine pretreatment; type: cell-based, human; details: SCC-9, 48 h; 7f 1 × IC50, menadione 20 μM
Protocol: The production of reactive oxygen species (ROS) was assessed by the detection of hydrogen peroxide (H2O2) using the ROS-Glo H2O2 assay kit (Promega Corporation, Madison, WI, USA; G8820). […] A plate with wells without cells was used as a control. Cells and cell-free wells remained in treatment at times of interest, and 2 h before completion of the times, well volumes were removed to reduce to 40 μL per well. Then the positive control of menadione (Sigma-Aldrich Co., St. Louis, MO, USA), a polycyclic aromatic ketone based on 1,4-naphthoquinone, was used to treat its respective well, and H2O2 substrate from the kit was added for all treatments, followed by the incubation of the plate for the remaining 2 h. Then the detection solution was added, and the plates remained at room temperature for 20 min, following the reading in the TD 20/20 luminometer (Turner Designs, Sunnyvale, CA, USA). The reading of bioluminescence detected is indicated as arbitrary units (a.u.). Additionally, the cell viability was assessed through pretreatment of cells with 10 mM N-acetyl-L-cysteine (NAC) (Sigma-Aldrich Co., St. Louis, MO, USA) for 2 h. […] At the end of the time, the MTT cell viability assay was performed.

What does the source list for `N.N.O=C([O-])C1(C(=O)[O-])CCC1.[Pt+2]` [Carboplatin, reference compound]?
SI SCC-4 (SCC-4): 2.45; pIC50 (SCC-4): 3.85; hemolytic activity / membrane integrity (erythrocytes): neither carboplatin nor PBS affected the membrane integrity; pIC50 [1]: 3.46; Average SI [1]: 2.05; SI SCC-25 (SCC-25): 1.40; pIC50 (SCC-25): 3.60; SI SCC-9 (SCC-9 cell line): 2.31; pIC50 (SCC-9 cell line): 3.82

With `O=C1C=C(NCc2cn(CCOc3cc(=O)oc4ccccc34)nn2)C(=O)c2ccccc21` [Compound 7a, 2-(((1-(2-((2-Oxo-2H-chromen-4-yl)oxy)ethyl)-1H-1,2,3-triazol-4-yl)methyl)amino) naphthalene-1,4-dione] as the compound, how does the pIC50 (SCC-9 cell line; Homo sapiens, SCC-9) read?
Its pIC50 is < 3.70.

`O=C1C=C(OCc2cn(CCOc3cc(=O)oc4ccccc34)nn2)C(=O)c2ccccc21` [Compound 7b, 2-((1-(2-((2-Oxo-2H-chromen-4-yl)oxy)ethyl)-1H-1,2,3-triazol-4-yl)methoxy) naphthalene-1,4-dione] was tested. Which pIC50 (SCC-9 cell line; Homo sapiens, SCC-9) did it give?
Its pIC50 is < 3.70.

`CC(C)=CC1=C(OCc2cn(CCOc3cc(=O)oc4ccccc34)nn2)C(=O)c2ccccc2C1=O` [Compound 7c, 2-(2-Methylprop-1-en-1-yl)-3-((1-(2-((2-oxo-2H-chromen-4-yl)oxy)ethyl)-1H-1,2,3-triazol-4-yl)methoxy)naphthalene-1,4-dione] was tested. Which pIC50 (SCC-4; Homo sapiens, SCC-4) did it give?
Its pIC50 is 4.77.

What about the “SI SCC-4” value (SCC-4) of the same compound?
Its value is 1.82.

What about the pIC50 ([1]; Homo sapiens, Fibroblast) of the same compound?
Its pIC50 is 4.51.

What about the “Average SI” value [1] of the same compound?
The value was 1.32.

What about the pIC50 (SCC-25; Homo sapiens, SCC-25) of the same compound?
Its pIC50 is 4.55.

What about the “SI SCC-25” value (SCC-25) of the same compound?
The value was 1.08.

What about the pIC50 (SCC-9 cell line; Homo sapiens, SCC-9) of the same compound?
Its pIC50 is 4.54.

What about the “SI SCC-9” value (SCC-9 cell line) of the same compound?
The value was 1.07.

With `CC(C)=CCC1=C(OCc2cn(CCOc3cc(=O)oc4ccccc34)nn2)C(=O)c2ccccc2C1=O` [Compound 7d, 2-(3-Methylbut-2-en-1-yl)-3-((1-(2-((2-oxo-2H-chromen-4-yl)oxy)ethyl)-1H-1,2,3-triazol-4-yl)methoxy)naphthalene-1,4-dione] as the compound, how does the pIC50 (SCC-9 cell line; Homo sapiens, SCC-9) read?
Its pIC50 is < 3.82.

How did the pIC50 (SCC-9 cell line; Homo sapiens, SCC-9) turn out when `O=C1C=C(NCc2cn(CCCOc3cc(=O)oc4ccccc34)nn2)C(=O)c2ccccc21` [Compound 7e, 2-(((1-(3-((2-Oxo-2H-chromen-4-yl)oxy)propyl)-1H-1,2,3-triazol-4-yl)methyl)amino) naphthalene-1,4-dione] was run?
The pIC50 was < 3.82.

How did the pIC50 (SCC-9 cell line; Homo sapiens, SCC-9) turn out when `O=c1cc(OCCCn2cc(COc3cc(=O)oc4ccccc34)nn2)c2ccccc2o1` [Compound 7g, 4-(3-(4-(((2-Oxo-2H-chromen-4-yl)oxy)methyl)-1H-1,2,3-triazol-1-yl)propoxy)-2H-chromen-2-one] was run?
The pIC50 was < 3.82.

How did the pIC50 (SCC-9 cell line; Homo sapiens, SCC-9) turn out when `CC(=O)OCc1cn(CCCOc2cc(=O)oc3ccccc23)nn1` [Compound 7h, (1-(3-((2-Oxo-2H-chromen-4-yl)oxy)propyl)-1H-1,2,3-triazol-4-yl)methyl acetate] was run?
Its pIC50 is < 3.70.

How did the pIC50 (SCC-9 cell line; Homo sapiens, SCC-9) turn out when `O=c1cc(OCCn2cc(-c3ccccc3)nn2)c2ccccc2o1` [Compound 7i, 4-(2-(4-Phenyl-1H-1,2,3-triazol-1-yl)ethoxy)-2H-chromen-2-one] was run?
The pIC50 was < 3.70.

How did the pIC50 (SCC-9 cell line; Homo sapiens, SCC-9) turn out when `CCCCCCc1cn(CCOc2cc(=O)oc3ccccc23)nn1` [Compound 7j, 4-(2-(4-Hexyl-1H-1,2,3-triazol-1-yl)ethoxy)-2H-chromen-2-one] was run?
The pIC50 was < 3.70.

With `CCCCCCc1cn(CCCOc2cc(=O)oc3ccccc23)nn1` [Compound 7l, 4-(3-(4-Hexyl-1H-1,2,3-triazol-1-yl)propoxy)-2H-chromen-2-one] as the compound, how does the pIC50 (SCC-9 cell line; Homo sapiens, SCC-9) read?
Its pIC50 is < 3.82.

`CC1=CC(=O)c2ccccc2C1=O` [menadione, reference compound] was tested. Which “cell viability in the presence of 10 mM N-acetyl-L-cysteine (NAC)” value (SCC-9 cells) did it give?
The value was “NAC protected cell death”.
